Data reported in patent US6689773B2, “Uracil substituted phenyl sulfamoyl carboxamides” (BASF Aktiengesellschaft, priority 2000, dated 2004).

Legend:
Format in all cases: in vivo
[1] = system: ZEAMX, Field corn, Zea mays L.; experiment: Preemergence herbicidal evaluation (Example 148); conditions: rating scale 0-9, two to four weeks after treatment
Method in brief: (§1)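 Herbicidal effect is a visual score comparing treated plants with a control for stand, vigor, size, malformation and chlorosis. Treatment was a preemergence spray (~0.125–0.250 kg/ha, aqueous acetone); assessment came 2–4 weeks later.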

[2] = system: IPOHE, Morningglory, Ivyleaf, Ipomoea hederacea, (L)Jacq.; experiment: Preemergence herbicidal evaluation (Example 148); conditions: rating scale 0-9, two to four weeks after treatment
Method in brief: as §1

[3] = system: ECHCG, Barnyardgrass, Echinochloa crusgalli, (L.)Beau; experiment: Preemergence herbicidal evaluation (Example 148); conditions: rating scale 0-9, two to four weeks after treatment
Method in brief: as §1

[4] = system: AMBEL, Ragweed, Common, Ambrosia artemiisifolia, L.; experiment: Preemergence herbicidal evaluation (Example 148); conditions: rating scale 0-9, two to four weeks after treatment
Method in brief: as §1

[5] = system: ABUTH, Velvetleaf, Abutilon theophrasti, Medic.; experiment: Preemergence herbicidal evaluation (Example 148); conditions: rating scale 0-9, two to four weeks after treatment
Method in brief: as §1

[6] = system: TRZAW, Winter wheat, Tritium Aestivum, L. (Winter); experiment: Preemergence herbicidal evaluation (Example 148); conditions: rating scale 0-9, two to four weeks after treatment
Method in brief: as §1

[7] = system: SETVI, Green foxtail, Setaria viridis, (L.)Beau; experiment: Preemergence herbicidal evaluation (Example 148); conditions: rating scale 0-9, two to four weeks after treatment
Method in brief: as §1

[8] = system: ALOMY, Blackgrass, Alopecurus myosuroides; experiment: Preemergence herbicidal evaluation (Example 148); conditions: rating scale 0-9, two to four weeks after treatment
Method in brief: as §1

[9] = system: DIGSA, Crabgrass, (Hairy) L, Digitaria sanguinalis, (L)Scop; experiment: Preemergence herbicidal evaluation (Example 148); conditions: rating scale 0-9, two to four weeks after treatment
Method in brief: as §1

[10] = system: CHEAL, Lambsquarters, Chenopodium album, L. Common; experiment: Preemergence herbicidal evaluation (Example 148); conditions: rating scale 0-9, two to four weeks after treatment
Method in brief: as §1

[11] = system: GLXMA, Soybean, Glycine max, (L.) Merr.; experiment: Preemergence herbicidal evaluation (Example 148); conditions: rating scale 0-9, two to four weeks after treatment
Method in brief: as §1

[12] = system: XANST, Cocklebur, Xanthium strumariam; experiment: Preemergence herbicidal evaluation (Example 148); conditions: rating scale 0-9, two to four weeks after treatment
Method in brief: as §1

[13] = system: ZEAMX, Field corn, Zea mays L.; experiment: Postemergence herbicidal evaluation (Example 147); conditions: rating scale 0-9, two to three weeks after treatment
Method in brief: (§2)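 Visual 0-9 rating against an untreated control, scored roughly two to three weeks after a postemergence spray of two-week-old seedlings. Dose equivalent about 0.016 to 0.032 kg/ha, delivered in 80/20 acetone/water with 1.0% SUN-IT II at 40 psi.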

[14] = system: IPOHE, Morningglory, Ivyleaf, Ipomoea hederacea, (L)Jacq.; experiment: Postemergence herbicidal evaluation (Example 147); conditions: rating scale 0-9, two to three weeks after treatment
Method in brief: as §2

[15] = system: ECHCG, Barnyardgrass, Echinochloa crusgalli, (L.)Beau; experiment: Postemergence herbicidal evaluation (Example 147); conditions: rating scale 0-9, two to three weeks after treatment
Method in brief: as §2

[16] = system: AMBEL, Ragweed, Common, Ambrosia artemiisifolia, L.; experiment: Postemergence herbicidal evaluation (Example 147); conditions: rating scale 0-9, two to three weeks after treatment
Method in brief: as §2

[17] = system: ABUTH, Velvetleaf, Abutilon theophrasti, Medic.; experiment: Postemergence herbicidal evaluation (Example 147); conditions: rating scale 0-9, two to three weeks after treatment
Method in brief: as §2

[18] = system: TRZAW, Winter wheat, Tritium Aestivum, L. (Winter); experiment: Postemergence herbicidal evaluation (Example 147); conditions: rating scale 0-9, two to three weeks after treatment
Method in brief: as §2

[19] = system: SETVI, Green foxtail, Setaria viridis, (L.)Beau; experiment: Postemergence herbicidal evaluation (Example 147); conditions: rating scale 0-9, two to three weeks after treatment
Method in brief: as §2

[20] = system: ALOMY, Blackgrass, Alopecurus myosuroides; experiment: Postemergence herbicidal evaluation (Example 147); conditions: rating scale 0-9, two to three weeks after treatment
Method in brief: as §2

[21] = system: DIGSA, Crabgrass, (Hairy) L, Digitaria sanguinalis, (L)Scop; experiment: Postemergence herbicidal evaluation (Example 147); conditions: rating scale 0-9, two to three weeks after treatment
Method in brief: as §2

[22] = system: CHEAL, Lambsquarters, Chenopodium album, L. Common; experiment: Postemergence herbicidal evaluation (Example 147); conditions: rating scale 0-9, two to three weeks after treatment
Method in brief: as §2

[23] = system: GLXMA, Soybean, Glycine max, (L.) Merr.; experiment: Postemergence herbicidal evaluation (Example 147); conditions: rating scale 0-9, two to three weeks after treatment
Method in brief: as §2

[24] = system: XANST, Cocklebur, Xanthium strumariam; experiment: Postemergence herbicidal evaluation (Example 147); conditions: rating scale 0-9, two to three weeks after treatment
Method in brief: as §2

SMILES: CC(C)N(C)S(=O)(=O)NC(=O)c1cc(-n2c(=O)cc(C(F)(F)F)n(N)c2=O)c(F)cc1Cl [Example 76]
- Preemergence herbicidal rating ZEAMX ([1]; rate 0.125 kg/ha): 1.0
- Preemergence herbicidal rating ZEAMX ([1]; rate 0.25 kg/ha): 1.0
- Preemergence herbicidal rating IPOHE ([2]; rate 0.125 kg/ha): 5.0
- Preemergence herbicidal rating IPOHE ([2]; rate 0.25 kg/ha): 9.0
- Preemergence herbicidal rating ECHCG ([3]; rate 0.125 kg/ha): 1.0
- Preemergence herbicidal rating ECHCG ([3]; rate 0.25 kg/ha): 2.0
- Preemergence herbicidal rating AMBEL ([4]; rate 0.125 kg/ha): 8.0
- Preemergence herbicidal rating AMBEL ([4]; rate 0.25 kg/ha): 9.0
- Preemergence herbicidal rating ABUTH ([5]; rate 0.125 kg/ha): 9.0
- Preemergence herbicidal rating ABUTH ([5]; rate 0.25 kg/ha): 9.0
- Preemergence herbicidal rating TRZAW ([6]; rate 0.125 kg/ha): 0.0
- Preemergence herbicidal rating TRZAW ([6]; rate 0.25 kg/ha): 1.0
- Preemergence herbicidal rating SETVI ([7]; rate 0.125 kg/ha): 1.0
- Preemergence herbicidal rating SETVI ([7]; rate 0.25 kg/ha): 2.0
- Preemergence herbicidal rating ALMOY ([8]; rate 0.125 kg/ha): 0.0
- Preemergence herbicidal rating ALMOY ([8]; rate 0.25 kg/ha): 2.0
- Preemergence herbicidal rating DIGSA ([9]; rate 0.125 kg/ha): 2.0
- Preemergence herbicidal rating DIGSA ([9]; rate 0.25 kg/ha): 3.0
- Preemergence herbicidal rating CHEAL ([10]; rate 0.125 kg/ha): 8.0
- Preemergence herbicidal rating CHEAL ([10]; rate 0.25 kg/ha): 9.0
- Preemergence herbicidal rating GLXMA ([11]; rate 0.125 kg/ha): 1.0
- Preemergence herbicidal rating GLXMA ([11]; rate 0.25 kg/ha): 3.0
- Preemergence herbicidal rating XANST ([12]; rate 0.125 kg/ha): 3.0
- Preemergence herbicidal rating XANST ([12]; rate 0.25 kg/ha): 5.0
- Postemergence herbicidal rating ZEAMX ([13]; rate 0.016 kg/ha): 5.5
- Postemergence herbicidal rating ZEAMX ([13]; rate 0.032 kg/ha): 6.5
- Postemergence herbicidal rating IPOHE ([14]; rate 0.016 kg/ha): 9.0
- Postemergence herbicidal rating IPOHE ([14]; rate 0.032 kg/ha): 9.0
- Postemergence herbicidal rating ECHCG ([15]; rate 0.016 kg/ha): 5.0
- Postemergence herbicidal rating ECHCG ([15]; rate 0.032 kg/ha): 6.0
- Postemergence herbicidal rating AMBEL ([16]; rate 0.016 kg/ha): 8.0
- Postemergence herbicidal rating AMBEL ([16]; rate 0.032 kg/ha): 8.0
- Postemergence herbicidal rating ABUTH ([17]; rate 0.016 kg/ha): 9.0
- Postemergence herbicidal rating ABUTH ([17]; rate 0.032 kg/ha): 9.0
- Postemergence herbicidal rating TRZAW ([18]; rate 0.016 kg/ha): 5.0
- Postemergence herbicidal rating TRZAW ([18]; rate 0.032 kg/ha): 6.0
- Postemergence herbicidal rating SETVI ([19]; rate 0.016 kg/ha): 5.0
- Postemergence herbicidal rating SETVI ([19]; rate 0.032 kg/ha): 6.0
- Postemergence herbicidal rating ALMOY ([20]; rate 0.016 kg/ha): 1.0
- Postemergence herbicidal rating ALMOY ([20]; rate 0.032 kg/ha): 1.0
- Postemergence herbicidal rating DIGSA ([21]; rate 0.016 kg/ha): 3.0
- Postemergence herbicidal rating DIGSA ([21]; rate 0.032 kg/ha): 4.0
- Postemergence herbicidal rating CHEAL ([22]; rate 0.016 kg/ha): 6.0
- Postemergence herbicidal rating CHEAL ([22]; rate 0.032 kg/ha): 6.0
- Postemergence herbicidal rating GLXMA ([23]; rate 0.016 kg/ha): 7.5
- Postemergence herbicidal rating GLXMA ([23]; rate 0.032 kg/ha): 7.5
- Postemergence herbicidal rating XANST ([24]; rate 0.016 kg/ha): 9.0
- Postemergence herbicidal rating XANST ([24]; rate 0.032 kg/ha): 9.0
